The test system of this assay is collagen Iα1 expression in proximal tubular cells (mProx24). Description: Inhibitory effect on collagen Iα1 expression in proximal tubular cells (hTGF-β1 stimulated, real-time PCR). The following applies: for mrna remaining at 0.01 µM / mrna remaining at 0.1 µM / mrna remaining at 1 µM / mrna remaining at 10 µM / inhibition at 0.01 µM / inhibition at 0.1 µM / inhibition at 1 µM / inhibition at 10 µM / IC50: Mus musculus; for mrna remaining at 0.01 µM / mrna remaining at 0.1 µM / mrna remaining at 1 µM / mrna remaining at 10 µM: Col1, mProx24, 5 ng/ml hTGF-β1 6 hrs, relative to hTGF-β1 alone = 1, read-out: Mean expression level ratio of collagen Iα1 (Col1α) to 18S rRNA; for mrna remaining at 0.01 µM / inhibition at 0.01 µM: 0.01 μM compound; for mrna remaining at 0.1 µM / inhibition at 0.1 µM: 0.1 μM compound; for mrna remaining at 1 µM / inhibition at 1 µM: 1 μM compound; for mrna remaining at 10 µM / inhibition at 10 µM: 10 μM compound; for inhibition at 0.01 µM / inhibition at 0.1 µM / inhibition at 1 µM / inhibition at 10 µM: mProx24, 100% = control without hTGF-β1, 0% = hTGF-β1 alone, read-out: expression inhibition rate (collagen Iα1); for IC50: mProx24, hTGF-β1 stimulated, read-out: IC50 (inhibition of collagen Iα1 expression). The class given is cell-based. The protocol: mProx24, which is a name of the proximal tubular cells derived from proximal tubule segments obtained by finely sectioning the kidney of adult C57BL6/J mice, was granted from Professor Sugaya, St. Marianna University School of Medicine, Kanagawa, Japan. mProx24 was cultured in DMEM (Dulbecco's modified Eagle's medium) supplemented with 10% fetal calf serum (FCS, Gibco), 100 U/ml penicillin, 100 μg/ml streptomycin, and 44 mM NaHCO3 at 37° C. in a 5% CO2 atmosphere. For quantitation of RNA expression, the cells were cultured in 6-well plates. When the cells grew 90% confluent, the medium was changed with a fresh 0.15% FCS (Gibco)-supplemented DMEM. Incubation in this medium for 24 hrs halted the cell growth to synchronize the growth cycle in the cells. Compounds of Examples 1 to 9 and Comparative Example were respectively dissolved in DMSO (dimethylsulfoxide) to form a concentration of 50 mM, and subjected to serial dilution to 10 mM, 1 mM, 0.1 mM, and 0.01 mM. 10 mM, 1 mM, 0.1 mM, and 0.01 mM solutions of each of the compounds of Examples 1 to 9 and Comparative Example were 1,000-fold diluted in 0.15% FCS (Gibco)-supplemented DMEM to form final concentrations of 10 μM, 1 μM, 0.1 μM, and 0.01 μM, respectively. In addition, 0 μM (DMSO 1 μL) was used. The cells were incubated for 1 hr in the dilutions and then for 6 hrs in the presence of 5 ng/ml recombinant human transforming growth factor-β1 (hTGF-β1, R&D Systems). For the control, hTGF-β1 was not used. Total RNA was extracted from mProx24 using Trizol (Invitrogen). For quantitation of mRNA expression, a reaction volume of 20 μL including cDNA transcripts, primer pairs, and SYBR Green PCR Master Mix (Applied Biosystems) was subjected to real-time PCR with the aid of StepOnePlus (Applied Biosystems) (real-time PCR condition: 95° C., 10 min→40 thermal cycles of denaturation at 95° C. for 15 sec and primer annealing at 60° C. for 1 min→95° C. for 15 sec, 60° C. for 1 min, and 95° C. for 15 sec to measure a melting curve). Quantitation was normalized to 18S rRNA expression level. A pair of primers for mouse collagen Iα1 were 5′-[…]-3′(SEQ ID NO: 13) and 5′-[…]-3′ (SEQ ID NO: 14). Forward and reverse primers for mouse r18S rRNA were 5′-CGAAAGCATTTGCCAAGAAT-3′ (SEQ ID NO: 11) and 5′-AGTCGGCATCGTTTATGGTC-3′ (SEQ ID NO: 12), respectively.
Experiment results are given in Tables 3 to 12 and FIGS. 4 to 13. Tables 3 to 12 and FIGS. 4 to 13 show inhibitory effects of the compounds of Examples 1 to 9 and Comparative Example 1 on collagen Iα1 expression in proximal tubular cells.
Data of Tables 3 to 12 and FIGS. 4 to 13 are measurements of experiments repeated three to five times for each concentration, and are expressed as mean±standard error (SE). Statistic comparison among the groups was analyzed by ANOVA and Fisher's least significant difference test, with significance at p<0.05. *P<0.05 vs. WT, †P<0.05 vs. DM.
In Tables 3 to 12, mean values of expression level ratios of collagen Iα1 (Col1α) to 18S rRNA (18S), and % inhibition against collagen Iα1 expression for each group are shown, together with IC50 value (μM). In this regard, % inhibition means relative inhibition to 100% for the control and 0% for the group that was treated with hTGF-β1 but not with any of the compounds of Examples or Comparative Example.
A general note: In qPCR the cycle at which signal appears reflects the starting amount.

Broadly, the inhibition is how much of the control response was suppressed. As a reminder, the IC50 is the concentration that inhibits the measured activity by half. In the case of `c1ccc(COc2c(Cc3ccccc3)c(-c3ccccc3)nn2-c2ccccn2)cc1` [Compound 18-233, 3-Phenyl-4-Benzyl-5-Benzyloxy-1-(2-Pyridinyl)Pyrazole, reference compound], the mrna remaining at 0.01 µM was 93.3%, the mrna remaining at 0.1 µM turned out to be 75.7%, the mrna remaining at 1 µM stood at 71.2% and the mrna remaining at 10 µM worked out at 65.6%. Further, the inhibition at 0.01 µM came out at 8.23%, the inhibition at 0.1 µM came out at 29.9%, the inhibition at 1 µM is 35.4% and the inhibition at 10 µM turned out to be 42.3%. Moreover, the IC50 amounted to 10200 nM. Where the note is “result in words”, the “expression of the extracellular matrix, collagen Iα1 (Col1α), in proximal tubular cells” value is listed as “decreased the expression level”.
On to `Oc1cc(-c2ccccc2-c2ccc3c(c2)OCO3)nn1-c1ccccn1` [Compound 18-177, 3-(2-(benzo[d][1,3]dioxol-5-yl)phenyl)-1-(pyridin-2-yl)-1H-pyrazol-5-ol], for which the mrna remaining at 0.01 µM was 96%, the mrna remaining at 0.1 µM worked out at 83.9%, the mrna remaining at 1 µM was 74.2% and the mrna remaining at 10 µM is 43.8%. Besides, the inhibition at 0.01 µM was determined as 5.46%, the inhibition at 0.1 µM came to 22%, the inhibition at 1 µM came out at 35.2% and the inhibition at 10 µM is 76.7%. For the same compound, the IC50 is 1310 nM.
In the case of `CCCc1c(/C=C/c2ccc(O)c(OC)c2)nn(-c2ccccn2)c1O` [Compound 18-273, 3-{2-(4-hydroxy-3-methoxyphenyl)vinyl}-4-propyl-1-(2-pyridinyl)pyrazol-5-ol], the mrna remaining at 0.01 µM came to 40.8%, the mrna remaining at 0.1 µM amounted to 83.5%, the mrna remaining at 1 µM amounted to 83.2% and the mrna remaining at 10 µM turned out to be 46%. Also, the inhibition at 0.01 µM amounted to 82.6%, the inhibition at 0.1 µM worked out at 23%, the inhibition at 1 µM worked out at 23.4% and the inhibition at 10 µM worked out at 75.3%. Moreover, the IC50 worked out at 1780 nM.
For `Oc1cc(-c2cccc(I)c2)nn1-c1ccccn1` [Compound 18-082, 3-(3-iodophenyl)-1-(pyridin-2-yl)-1H-pyrazol-5-ol], the mrna remaining at 0.01 µM was found to be 71%, the mrna remaining at 0.1 µM is 60.5%, the mrna remaining at 1 µM stood at 39.1% and the mrna remaining at 10 µM came to 31.2%. Moreover, the inhibition at 0.01 µM is 39.5%, the inhibition at 0.1 µM amounted to 53.8%, the inhibition at 1 µM worked out at 83% and the inhibition at 10 µM is 93.7%. Further, the IC50 is 105 nM.
As to `Oc1cc(COc2ccc3ccccc3c2)nn1-c1ccccn1` [Compound 18-095, 3-((naphthalen-3-yloxy)methyl)-1-(pyridin-2-yl)-1H-pyrazol-5-ol], the mrna remaining at 0.01 µM turned out to be 69.9%, the mrna remaining at 0.1 µM stood at 66.3%, the mrna remaining at 1 µM amounted to 50.4% and the mrna remaining at 10 µM is 26.8%. The inhibition at 0.01 µM came to 37.2%, the inhibition at 0.1 µM was determined as 41.7%, the inhibition at 1 µM is 61.4% and the inhibition at 10 µM was 90.6%. Moreover, the IC50 was 227 nM.
For the compound `COc1cccc(-c2cc(O)n(-c3ccccn3)n2)c1` [Compound 18-001, 3-(3-Methoxyphenyl)-1-(Pyridin-2-yl)-1H-Pyrazol-5-ol], the mrna remaining at 0.01 µM was 74.8%, the mrna remaining at 0.1 µM is 69.8%, the mrna remaining at 1 µM stood at 64.2% and the mrna remaining at 10 µM worked out at 34.5%. Besides, the inhibition at 0.01 µM amounted to 31%, the inhibition at 0.1 µM is 37.1%, the inhibition at 1 µM came to 44% and the inhibition at 10 µM came out at 80.5%. The IC50 came to 3190 nM.
Regarding `CC(=O)Oc1cc(-c2ccc(Br)cc2)nn1-c1ccccn1` [Compound 18-067, 3-(4-bromophenyl)-1-(pyridin-2-yl)-1H-pyrazol-5-yl acetate], the mrna remaining at 0.01 µM was 70%, the mrna remaining at 0.1 µM is 60.7%, the mrna remaining at 1 µM is 56.2% and the mrna remaining at 10 µM worked out at 32.5%. The inhibition at 0.01 µM came to 35.6%, the inhibition at 0.1 µM is 46.6%, the inhibition at 1 µM is 52% and the inhibition at 10 µM came out at 80.1%. The IC50 was determined as 299 nM.
In the case of `Oc1cc(-c2ccc(-c3ccccc3)cc2)nn1-c1ncccn1` [Compound 18-186, 3-(biphenyl-4-yl)-1-(pyrimidin-2-yl)-1H-pyrazol-5-ol], the mrna remaining at 0.01 µM worked out at 82.5%, the mrna remaining at 0.1 µM is 56.9%, the mrna remaining at 1 µM amounted to 58.6% and the mrna remaining at 10 µM is 58.3%. In addition, the inhibition at 0.01 µM worked out at 22.5%, the inhibition at 0.1 µM amounted to 55.4%, the inhibition at 1 µM amounted to 53.2% and the inhibition at 10 µM was found to be 53.6%. The IC50 was found to be 78 nM.
Turning to `Oc1cc(-c2ccc(Br)cc2)nn1-c1ccccn1` [Compound 18-066, 3-(4-bromophenyl)-1-(pyridin-2-yl)-1H-pyrazol-5-ol], the mrna remaining at 0.01 µM worked out at 78.5%, the mrna remaining at 0.1 µM amounted to 71.7%, the mrna remaining at 1 µM is 72.6% and the mrna remaining at 10 µM was determined as 58.3%. Moreover, the inhibition at 0.01 µM is 30.2%, the inhibition at 0.1 µM stood at 39.8%, the inhibition at 1 µM came out at 38.5% and the inhibition at 10 µM is 58.6%. Further, the IC50 was determined as 2140 nM.

Source of the values: US10047067B2, “Composition for treating kidney disease comprising pyrazole derivative” (Ewha University-Industry Collaboration Foundation, priority 2012, dated 2018).
